Assay results reported in patent US20220213030A1, “AMINOGUANIDINE HYDRAZONES AS RETROMER STABILIZERS USEFUL FOR TREATING NEUROLOGICAL DISEASES” (OSPEDALE SAN RAFFAELE SRL, priority 2019, published 2022).

Experiments:
Assay type in all cases: in vivo, mouse
Conditions in all cases: 10 mg/kg, day 100
[1] = tested on: poly-ubiquitinated proteins; assay: Poly-ubiquitinated proteins in lumbar spinal cord of G93A mice
Source text: (§1) Ubiquitinated inclusions accumulate in MNs of sALS and fALS patients and in lumbar SCs of ALS mice (Kabashi 2001). High levels of ubiquitinated proteins may represent an overwhelmed response of MNs to protein misfolding and aggregation, as well as a reduction of lysosome functionality. We characterized poly-ubiquitinated proteins in lumbar SCs protein extracts by 10% denaturating PAGE. We included in our experiments protein extracts from Neuro2a cells treated with the proteasome inhibitor Bortezomib (BTZ), able to increase poly-ubiquitination, as an experimental control (FIG. 13A). […] We next scored ubiquitin MFI levels in ventral horn MNs of G93A mice. […] As previously observed in Neuro2a cells, the overexpression of G93A plasmids affects the Golgi apparatus, therefore we asked whether similar alterations can occur in G93A mice by labeling lumbar sections for the cis-Golgi matrix protein GM130.
Lumbar spinal cords were dissected from saline perfused mice and rapidly homogenized in the following lysis buffer: Tris-HCl 10 mM pH 8, EDTA pH 8 1 mM, NaCl 100 mM, NP40 1% and protease inhibitor cocktail (Sigma). […] Protein concentrations were measured by BCA protein assay kit (Thermofisher) according to the manufacturer's recommendations. […] Quantifications were done using the Image Lab 6.0.1 software (Bio-Rad). […]

[2] = tested on: VPS26; assay: VPS26 MFI in NeuN+ MNs of G93A mice
Source text: We next assayed retromer proteins labelling sections of mice sacrificed at day 100 for VPS35 and NeuN. […] Similarly, we observed that VPS26 levels were increased in G93A mice receiving compound 2a (FIG. 11B). We further corroborated our experimental finding observing that compound 2a increased retromer functionality. The cation-independent mannose 6-phosphate receptor (CI-MPR) is a cargo (Arighi et al., 2004) of the retromer complex that is unstable in VPS26 knockout cells (Seaman 2004). We observed a substantial reduction of CI-MPR MFI levels in MNs of vehicle-treated G93A mice when compared with WT litters (FIG. 11C). […]
Fluorescence intensity levels of VPS35, VPS26, Sortilin, CTSD and Ubiquitin were calculated using NHI-Image J software (US National Institutes of Health) according to the following protocol: stacks of confocal images were used to generate the maximal projections (Las-X) and then post-processed by NHI-Image J to crop single NeuN^+ MNs from the ventral horn of the spinal cord. We next performed background (calculated on adjacent slices only receiving secondary antibodies) subtraction for each channel, before applying the NHI-Image J mean filter (with radius 2.0 pixels) to calculate mean NeuN fluorescence levels in individual MN. […] On this selected ROI, we calculated mean fluoresce levels (MFI) of each protein.

[3] = tested on: Golgi apparatus (GM130); assay: GM130 Golgi labelling in MNs of G93A mice
Source text: as §1
Sections from mice (frozen cryo sections) or glass covers containing cells were washed three times in PBS 1× (Lonza, 5 min each), and incubated in the following blocking mix: PBS 1×/FBS 10% (Invitrogen), BSA 1 mg/mL (Sigma), TritonX100 0.1% (Sigma), for 1 h at room temperature. Antibodies were diluted in blocking mix and incubated at +4° C. overnight according manufacturer's instructions. […]

Compound: N=C(N)NN=Cc1cccc(C=NNC(=N)N)c1 [Compound 2a, 1,3-Bis-amino guanidine phenyl hydrazone]
- MFI levels of ubiquitin fluorescence in ventral horn MNs [1]: vehicle-treated G93A MNs were higher than levels scored in compound 2a-treated G93A mice
- poly-ubiquitination (WB densitometry) [1]: substantially reduced
- VPS26 levels (MFI) [2]: increased
- reduction of GM130-covered areas in MNs [3]: substantially reverted
